Experimental data from patent US9174952B2, “Substituted 3-thiazoloamino-propionic acid derivatives and their use as pharmaceuticals” (SANOFI, priority 2011, dated 2015).

Target: T1, Recombinant human cathepsin A (Homo sapiens, UniProt P10619)
T1 construct: Recombinant human cathepsin A (residues 29-480, with a C-terminal 10-His tag); 10-His (C); purchased R&D Systems 1049-SE
T1 sequence (P10619 29-326 limits assumed): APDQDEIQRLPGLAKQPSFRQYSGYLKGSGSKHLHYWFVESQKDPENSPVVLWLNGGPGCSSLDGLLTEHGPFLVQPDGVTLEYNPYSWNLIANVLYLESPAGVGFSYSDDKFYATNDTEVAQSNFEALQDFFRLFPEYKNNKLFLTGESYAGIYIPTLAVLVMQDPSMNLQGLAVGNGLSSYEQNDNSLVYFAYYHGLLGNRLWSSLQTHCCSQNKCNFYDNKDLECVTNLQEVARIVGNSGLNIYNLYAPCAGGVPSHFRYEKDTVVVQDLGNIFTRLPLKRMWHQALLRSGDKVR
T1 sequence (P10619 327-480 limits assumed): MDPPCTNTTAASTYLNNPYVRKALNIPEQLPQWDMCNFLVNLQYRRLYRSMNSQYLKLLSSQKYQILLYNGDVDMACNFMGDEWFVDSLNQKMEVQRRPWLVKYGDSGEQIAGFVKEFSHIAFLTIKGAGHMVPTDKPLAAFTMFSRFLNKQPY
Test: Cathepsin A inhibitory activity
Assay type: biochemical
Conditions: activated recombinant human cathepsin A 833 ng/ml, Bodipy FL-labeled bradykinin substrate 2 μM, pH 5.5, room temperature
How it was run: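 Enzyme (residues 29-480, C-terminal His tag) pre-activated by cathepsin L at 37° C, then quenched with E-64. Compound preincubated 15 min at room temperature in 25 mM MES pH 5.5 with 5 mM DTT, then 2 μM Bodipy FL-bradykinin added for 15 min at 833 ng/ml enzyme. Product/substrate separated by microfluidic capillary electrophoresis; IC50 from multi-concentration inhibition.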

SMILES | IC50 [µM]
O=C(O)CC(NC(=O)c1csc(-c2ccc(Cl)cc2)n1)C1CCCCC1 (centres unmarked) [Example 126, 3-{[2-(4-Chloro-phenyl)-thiazole-4-carbonyl]-amino}-3-cyclohexyl-propionic acid] | 3.94
O=C(O)CC(Cc1ccccc1)NC(=O)c1csc(-c2ccc(Cl)cc2)n1 (centres unmarked) [Example 127, 3-{[2-(4-Chloro-phenyl)-thiazole-4-carbonyl]-amino}-4-phenyl-butyric acid] | 12.6
Cc1ccccc1-c1nc(C(=O)NC(CC(=O)O)C2CCCCC2)cs1 (centres unmarked) [Example 128, 3-Cyclohexyl-3-[(2-o-tolyl-thiazole-4-carbonyl)-amino]-propionic acid] | 0.81
O=C(O)CC(NC(=O)c1csc(-c2ccccc2)n1)C1CCCCC1 (centres unmarked) [Example 129, 3-Cyclohexyl-3-[(2-phenyl-thiazole-4-carbonyl)-amino]-propionic acid] | 1.12
O=C(O)CC(NC(=O)c1csc(-c2cccc(Cl)c2Cl)n1)C1CCCCC1 (centres unmarked) [Example 130, 3-Cyclohexyl-3-{[2-(2,3-dichloro-phenyl)-thiazole-4-carbonyl]-amino}-propionic acid] | 1.1
O=C(O)CC(NC(=O)c1csc(-c2ccccc2F)n1)C1CCCCC1 (centres unmarked) [Example 131, 3-Cyclohexyl-3-{[2-(2-fluoro-phenyl)-thiazole-4-carbonyl]-amino}-propionic acid] | 1.43
O=C(O)CC(NC(=O)c1csc(-c2ccc(C(F)(F)F)cc2)n1)C1CCCCC1 (centres unmarked) [Example 132, 3-Cyclohexyl-3-{[2-(4-trifluoromethyl-phenyl)-thiazole-4-carbonyl]-amino}-propionic acid] | 11.2
Cc1ccccc1-c1nc(C(=O)NC(CC(=O)O)Cc2ccccc2)cs1 (centres unmarked) [Example 133, 4-Phenyl-3-[(2-o-tolyl-thiazole-4-carbonyl)-amino]-butyric acid] | 3.37
O=C(O)CC(Cc1ccccc1)NC(=O)c1csc(-c2ccccc2)n1 (centres unmarked) [Example 134, 4-Phenyl-3-[(2-phenyl-thiazole-4-carbonyl)-amino]-butyric acid] | 3.42
O=C(O)CC(Cc1ccccc1)NC(=O)c1csc(-c2ccc(C(F)(F)F)cc2)n1 (centres unmarked) [Example 135, 4-Phenyl-3-{[2-(4-trifluoromethyl-phenyl)-thiazole-4-carbonyl]-amino}-butyric acid] | 22.2
Cc1ccccc1[C@H](CC(=O)O)NC(=O)c1nc(-c2ccccc2)cs1 [Example 136, (S)-3-[(4-Phenyl-thiazole-2-carbonyl)-amino]-3-o-tolyl-propionic acid] | 0.0889
